Test results published in patent US11299473B2, “Benzimidazole and indole compounds and uses thereof” (Incyte Corporation, priority 2018, dated 2022).

Target: active HPK1 (SignalChem M23-11G) (Homo sapiens (Human), UniProt Q92918)
Test: HPK1 Kinase Binding Assay
Conditions: LanthaScreen tracer 222 / Eu-Anti GST antibody, one hour incubation at 25° C.
Description: A stock solution of 1 mM test compound was prepared in DMSO. The compound plate was prepared by 3-fold and 11-point serial dilutions. 0.1 μL of the compound in DMSO was transferred from the compound plate to the white 384 well polystyrene plates. The assay buffer contained 50 mM HEPES, pH 7.5, 0.01% Tween-20, 5 mM MgCl2, 0.01% BSA, and 5 mM DTT. 5 μL of 4 nM active HPK1 (SignalChem M23-11G) prepared in the buffer was added to the plate. The enzyme concentration given was based on the given stock concentration reported by the vender. 5 μl of 18 nM tracer 222 (ThermoFisher PV6121) and 4 nM LanthaScreen Eu-Anti GST antibody (ThermoFisher PV5595) were added. After one hour incubation at 25° C., the plates were read on a PHERAstar FS plate reader (BMG Labtech). Ki values were determined.

Sequence of active HPK1 (SignalChem M23-11G) (Q92918 1-346 limits assumed): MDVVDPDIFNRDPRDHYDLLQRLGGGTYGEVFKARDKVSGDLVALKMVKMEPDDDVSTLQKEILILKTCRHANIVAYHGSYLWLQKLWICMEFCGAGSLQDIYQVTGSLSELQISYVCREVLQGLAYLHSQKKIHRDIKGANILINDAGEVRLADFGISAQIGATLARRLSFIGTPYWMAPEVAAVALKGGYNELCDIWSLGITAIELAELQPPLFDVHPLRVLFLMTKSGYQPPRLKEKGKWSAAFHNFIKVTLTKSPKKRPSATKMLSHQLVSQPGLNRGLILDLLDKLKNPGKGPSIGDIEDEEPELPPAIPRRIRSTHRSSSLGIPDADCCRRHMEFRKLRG

Ki, ≤ 100 nM:
COCCc1nc2c(N3CCC[C@H]3CN)c(NC(=O)c3ccnc(-c4c(F)cccc4OC)n3)ccc2n1C [Example 26, (S)—N-(4-(2-(Aminomethyl)pyrrolidin-1-yl)-2-(2-methoxyethyl)-1-methyl-1H-benzo[d]imidazol-5-yl)-2-(2-fluoro-6-methoxyphenyl)pyrimidine-4-carboxamide]
COc1cccc(F)c1-c1nccc(C(=O)Nc2ccc3c(ncn3[C@@H]3CCOC3)c2N2CCC[C@H]2CN)n1 [Example 27, N-(4-((S)-2-(Aminomethyl)pyrrolidin-1-yl)-1-((R)-tetrahydrofuran-3-yl)-1H-benzo[d]imidazol-5-yl)-2-(2-fluoro-6-methoxyphenyl)pyrimidine-4-carboxamide]
COc1cccc(F)c1-c1nccc(C(=O)Nc2ccc3c(ncn3C)c2N2CCC[C@H]2CN)n1 [Example 28, (S)—N-(4-(2-(Aminomethyl)pyrrolidin-1-yl)-1-methyl-1H-benzo[d]imidazol-5-yl)-2-(2-fluoro-6-methoxyphenyl)pyrimidine-4-carboxamide]
COc1cccc(F)c1-c1nccc(C(=O)Nc2ccc3c(nc(C)n3Cc3ccncc3)c2N2CC[C@H](N)C2)n1 [Example 29, (S)—N-(4-(3-Aminopyrrolidin-1-yl)-2-methyl-1-(pyridin-4-ylmethyl)-1H-benzo[d]imidazol-5-yl)-2-(2-fluoro-6-methoxyphenyl)pyrimidine-4-carboxamide]
COc1cccc(F)c1-c1nccc(C(=O)Nc2ccc3c(nc(C)n3Cc3cnn(C)c3)c2N2CC[C@H](N)C2)n1 [Example 30, (S)—N-(4-(3-Aminopyrrolidin-1-yl)-2-methyl-1-((1-methyl-1H-pyrazol-4-yl)methyl)-1H-benzo[d]imidazol-5-yl)-2-(2-fluoro-6-methoxyphenyl)pyrimidine-4-carboxamide]
COc1cccc(F)c1-c1nccc(C(=O)Nc2ccc3c(nc(C)n3C)c2-c2ccccc2N)n1 [Example 31, N-(4-(2-Aminophenyl)-1,2-dimethyl-1H-benzo[d]imidazol-5-yl)-2-(2-fluoro-6-methoxyphenyl)pyrimidine-4-carboxamide]
Cc1nc2c(N3CCC[C@H]3CN)c(NC(=O)c3ccnc(-c4c(F)cccc4F)n3)ccc2n1C [Example 32, (S)—N-(4-(2-(Aminomethyl)pyrrolidin-1-yl)-1,2-dimethyl-1H-benzo[d]imidazol-5-yl)-2-(2,6-difluorophenyl)pyrimidine-4-carboxamide]
Cc1cccc(F)c1-c1nccc(C(=O)Nc2ccc3c(nc(C)n3C)c2N2CCC[C@H]2CN)n1 [Example 33, (S)—N-(4-(2-(Aminomethyl)pyrrolidin-1-yl)-1,2-dimethyl-1H-benzo[d]imidazol-5-yl)-2-(2-fluoro-6-methylphenyl)pyrimidine-4-carboxamide]
COc1cccc(F)c1-c1nc(C(=O)Nc2ccc3c(nc(C)n3C)c2N2CCC[C@H]2CN)ccc1F [Example 34, N-(4-((S)-2-(Aminomethyl)pyrrolidin-1-yl)-1,2-dimethyl-1H-benzo[d]imidazol-5-yl)-5-fluoro-6-(2-fluoro-6-methoxyphenyl)picolinamide]
COc1cccc(F)c1-c1nccc(C(=O)Nc2ccc3c(ccn3C)c2N2CCC[C@@H]2CN)n1 [Example 35, (R)—N-(4-(2-(Aminomethyl)pyrrolidin-1-yl)-1-methyl-1H-indol-5-yl)-2-(2-fluoro-6-methoxyphenyl)pyrimidine-4-carboxamide]
COc1cccc(F)c1-c1nccc(C(=O)Nc2ccc3c(ccn3C)c2N2C[C@@H](N)C[C@H]2CO)n1 [Example 36, N-(4-((2S,4S)-4-Amino-2-(hydroxymethyl)pyrrolidin-1-yl)-1-methyl-1H-indol-5-yl)-2-(2-fluoro-6-methoxyphenyl)pyrimidine-4-carboxamide]
COc1cccc(F)c1-c1nccc(C(=O)Nc2ccc3c(ccn3C)c2N2CCNC[C@H]2C)n1 [Example 37, (R)-2-(2-Fluoro-6-methoxyphenyl)-N-(1-methyl-4-(2-methylpiperazin-1-yl)-1H-indol-5-yl)pyrimidine-4-carboxamide]
COc1cccc(F)c1-c1nccc(C(=O)Nc2ccc3c(ccn3C)c2N2C[C@@H]3C[C@H]2CN3)n1 [Example 38, N-(4-((1S,4S)-2,5-Diazabicyclo[2.2.1]heptan-2-yl)-1-methyl-1H-indol-5-yl)-2-(2-fluoro-6-methoxyphenyl)pyrimidine-4-carboxamide]
COc1cccc(F)c1-c1nccc(C(=O)Nc2ccc3c(ccn3Cc3ccncc3)c2N2C[C@@H]3C[C@H]2CN3)n1 [Example 39, N-(4-((1S,4S)-2,5-Diazabicyclo[2.2.1]heptan-2-yl)-1-(pyridin-4-ylmethyl)-1H-indol-5-yl)-2-(2-fluoro-6-methoxyphenyl)pyrimidine-4-carboxamide]
COc1cccc(F)c1-c1nccc(C(=O)Nc2ccc3[nH]ccc3c2N2C[C@@H]3C[C@H]2CN3)n1 [Example 40, N-(4-((1S,4S)-2,5-Diazabicyclo[2.2.1]heptan-2-yl)-1H-indol-5-yl)-2-(2-fluoro-6-methoxyphenyl)pyrimidine-4-carboxamide]
COc1cccc(F)c1-c1nccc(C(=O)Nc2ccc3c(ccn3CC3CCCCO3)c2N2C[C@@H]3C[C@H]2CN3)n1 (stereo partly drawn) [Example 41, N-(4-((1S,4S)-2,5-Diazabicyclo[2.2.1]heptan-2-yl)-1-((tetrahydro-2H-pyran-2-yl)methyl)-1H-indol-5-yl)-2-(2-fluoro-6-methoxyphenyl)pyrimidine-4-carboxamide]
COc1cccc(F)c1-c1nccc(C(=O)Nc2ccc3c(ccn3Cc3cnc(C)s3)c2N2C[C@@H]3C[C@H]2CN3)n1 [Example 42, N-(4-((1S,4S)-2,5-Diazabicyclo[2.2.1]heptan-2-yl)-1-((2-methylthiazol-5-yl)methyl)-1H-indol-5-yl)-2-(2-fluoro-6-methoxyphenyl)pyrimidine-4-carboxamide]
COc1cccc(F)c1-c1nccc(C(=O)Nc2ccc3c(ccn3CCN3CCOCC3)c2N2C[C@@H]3C[C@H]2CN3)n1 [Example 43, N-(4-((1S,4S)-2,5-Diazabicyclo[2.2.1]heptan-2-yl)-1-(2-morpholinoethyl)-1H-indol-5-yl)-2-(2-fluoro-6-methoxyphenyl)pyrimidine-4-carboxamide]
COc1cc(-n2ccc3c(N4C[C@@H]5C[C@H]4CN5)c(NC(=O)c4ccnc(-c5c(F)cccc5OC)n4)ccc32)ccn1 [Example 44, N-(4-((1S,4S)-2,5-Diazabicyclo[2.2.1]heptan-2-yl)-1-(2-methoxypyridin-4-yl)-1H-indol-5-yl)-2-(2-fluoro-6-methoxyphenyl)pyrimidine-4-carboxamide]
COc1ccc(-n2ccc3c(N4C[C@@H](N)C[C@H]4CO)c(NC(=O)c4ccnc(-c5c(F)cccc5OC)n4)ccc32)c(F)c1 [Example 45, N-(4-((2S,4S)-4-Amino-2-(hydroxymethyl)pyrrolidin-1-yl)-1-(2-fluoro-4-methoxyphenyl)-1H-indol-5-yl)-2-(2-fluoro-6-methoxyphenyl)pyrimidine-4-carboxamide]
COc1cccc(F)c1-c1nccc(C(=O)Nc2ccc3c(ccn3-c3ccnn3C)c2N2C[C@@H](N)C[C@H]2CO)n1 [Example 46, N-(4-((2S,4S)-4-Amino-2-(hydroxymethyl)pyrrolidin-1-yl)-1-(1-methyl-1H-pyrazol-5-yl)-1H-indol-5-yl)-2-(2-fluoro-6-methoxyphenyl)pyrimidine-4-carboxamide]
COc1cccc(F)c1-c1nccc(C(=O)Nc2ccc3c(ccn3-c3cccc(F)c3C#N)c2N2C[C@@H](N)C[C@H]2CO)n1 [Example 47, N-(4-((2S,4S)-4-Amino-2-(hydroxymethyl)pyrrolidin-1-yl)-1-(2-cyano-3-fluorophenyl)-1H-indol-5-yl)-2-(2-fluoro-6-methoxyphenyl)pyrimidine-4-carboxamide]
